Some results are limits rather than exact numbers.

The IC50 is the concentration at which inhibition is half-maximal. Read a high IC50 as weaker potency in that assay.

For this experiment, the target named is TrkA (Homo sapiens (Human), UniProt P04629). Kind of experiment: TrkA Omnia Assay. Particulars: averaged IC50; 20 nM enzyme, 500 μM ATP, 10 μM peptide substrate. The class given is biochemical. The procedure, abridged: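 Recombinant TrkA (20 nM) preincubated 10 min at ambient temperature with compound, then Omnia Tyr Peptide #4 (10 μM) and ATP (500 μM) added in 25 mM MOPS pH 7.5, 5 mM MgCl2, 0.005% Triton X-100. Fluorescence (ex 360/em 485 nm) followed continuously for 70 min; IC50 from initial rates by 4- or 5-parameter logistic fit.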
Sequence of TrkA (P04629 33-796): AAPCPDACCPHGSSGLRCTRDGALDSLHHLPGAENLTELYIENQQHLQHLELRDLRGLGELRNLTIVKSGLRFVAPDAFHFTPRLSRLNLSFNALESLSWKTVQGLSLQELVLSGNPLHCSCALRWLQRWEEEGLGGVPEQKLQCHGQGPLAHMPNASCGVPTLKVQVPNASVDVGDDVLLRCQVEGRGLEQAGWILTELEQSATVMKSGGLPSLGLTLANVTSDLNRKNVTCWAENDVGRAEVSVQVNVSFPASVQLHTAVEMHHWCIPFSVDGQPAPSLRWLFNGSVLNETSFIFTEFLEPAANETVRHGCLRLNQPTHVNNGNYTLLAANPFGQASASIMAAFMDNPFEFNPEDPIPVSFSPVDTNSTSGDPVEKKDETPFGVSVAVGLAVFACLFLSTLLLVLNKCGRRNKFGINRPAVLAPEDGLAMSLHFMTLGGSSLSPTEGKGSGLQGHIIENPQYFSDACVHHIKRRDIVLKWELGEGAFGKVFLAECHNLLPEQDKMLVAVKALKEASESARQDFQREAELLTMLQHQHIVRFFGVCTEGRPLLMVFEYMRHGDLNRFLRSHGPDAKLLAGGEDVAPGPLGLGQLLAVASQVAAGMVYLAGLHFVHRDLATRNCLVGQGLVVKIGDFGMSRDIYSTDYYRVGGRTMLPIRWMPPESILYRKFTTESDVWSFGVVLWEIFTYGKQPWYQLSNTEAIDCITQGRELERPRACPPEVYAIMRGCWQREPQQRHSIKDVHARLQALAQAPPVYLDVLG
`COCCN1C[C@@H](NC(=O)Nc2c(C)c(C(C)(C)CO)nn2-c2ccccc2)[C@H](c2ccc(F)c(F)c2)C1` [Example 118, 1-((3S,4R)-4-(3,4-difluorophenyl)-1-(2-methoxyethyl)pyrrolidin-3-yl)-3-(3-(1-hydroxy-2-methylpropan-2-yl)-4-methyl-1-phenyl-1H-pyrazol-5-yl)urea] came in with an IC50 of under 100 nM.

On to `COCCN1C[C@@H](NC(=O)Nc2cc(-c3ccc(Cl)cc3)nn2C)[C@H](c2ccc(F)c(F)c2)C1` [Example 119, 1-(3-(4-chlorophenyl)-1-methyl-1H-pyrazol-5-yl)-3-((3S,4R)-4-(3,4-difluorophenyl)-1-(2-methoxyethyl)pyrrolidin-3-yl)urea], for which the IC50 was under 100 nM.

`COCCN1C[C@@H](NC(=O)Nc2cc(-c3ccc(F)cc3)nn2C)[C@H](c2cc(F)ccc2F)C1` [Example 120, 1-((3S,4R)-4-(2,5-difluorophenyl)-1-(2-methoxyethyl)pyrrolidin-3-yl)-3-(3-(4-fluoro-phenyl)-1-methyl-1H-pyrazol-5-yl)urea]: the IC50 was under 100 nM.

In turn, `COCCN1C[C@@H](NC(=O)Nc2cc(-c3ccc(C(=O)OC)cc3)nn2C)[C@H](c2ccc(F)c(F)c2)C1` [Example 121, methyl 4-(5-(3-((3S,4R)-4-(3,4-difluorophenyl)-1-(2-methoxyethyl)pyrrolidin-3-yl)ureido)-1-methyl-1H-pyrazol-3-yl)benzoate] yielded an IC50 of under 100 nM.

In turn, `COCCN1C[C@@H](NC(=O)Nc2cc(-c3ccccc3)nn2CCO)[C@H](c2ccc(F)c(F)c2)C1` [Example 122, 1-((3S,4R)-4-(3,4-difluorophenyl)-1-(2-methoxyethyl)pyrrolidin-3-yl)-3-(1-(2-hydroxy-ethyl)-3-phenyl-1H-pyrazol-5-yl)urea] gave an IC50 of 100 to 1000 nM.

As to `COCCN1C[C@@H](NC(=O)Nc2c(C)c(COC)nn2-c2ccccc2)[C@H](c2ccc(F)c(F)c2)C1` [Example 123, 1-((3S,4R)-4-(3,4-difluorophenyl)-1-(2-methoxyethyl)pyrrolidin-3-yl)-3-(3-(methoxy-methyl)-4-methyl-1-phenyl-1H-pyrazol-5-yl)urea], the IC50 was under 100 nM.

In turn, `COCCN1C[C@@H](NC(=O)Nc2c(C)c(COC)nn2-c2ccccc2)[C@H](c2cc(F)cc(F)c2)C1` [Example 124, 1-((3S,4R)-4-(3,5-difluorophenyl)-1-(2-methoxyethyl)pyrrolidin-3-yl)-3-(3-(methoxy-methyl)-4-methyl-1-phenyl-1H-pyrazol-5-yl)urea] gave a 50% inhibitory concentration (IC50) of under 100 nM.

Compound `COCCN1C[C@@H](NC(=O)Nc2cc(-c3ccc(SC)cc3)nn2C)[C@H](c2ccc(F)c(F)c2)C1` [Example 125, 1-((3S,4R)-4-(3,4-difluorophenyl)-1-(2-methoxyethyl)pyrrolidin-3-yl)-3-(1-methyl-3-(4-(methylthio)phenyl)-1H-pyrazol-5-yl)urea] showed an IC50 of under 100 nM.

Turning to `COCCN1C[C@@H](NC(=O)Nc2cc(-c3ccccc3)nn2-c2ccccc2)[C@H](c2ccc(F)c(F)c2)C1` [Example 126, 1-((3S,4R)-4-(3,4-difluorophenyl)-1-(2-methoxyethyl)pyrrolidin-3-yl)-3-(1,3-diphenyl-1H-pyrazol-5-yl)urea], the IC50 was under 100 nM.

`COCCCc1nn(-c2ccccc2)c(NC(=O)N[C@@H]2CN(CCOC)C[C@H]2c2ccc(F)c(F)c2)c1C` [Example 127, 1-((3S,4R)-4-(3,4-difluorophenyl)-1-(2-methoxyethyl)pyrrolidin-3-yl)-3-(3-(3-methoxypropyl)-4-methyl-1-phenyl-1H-pyrazol-5-yl)urea]: the IC50 was under 100 nM.

As to `COCCN1C[C@@H](NC(=O)Nc2c3c(nn2-c2ccccc2)CCC3)[C@H](c2ccc(F)cc2)C1` [Example 128, 1-((3S,4R)-4-(4-fluorophenyl)-1-(2-methoxyethyl)pyrrolidin-3-yl)-3-(2-phenyl-2,4,5,6-tetrahydrocyclo-penta[c]pyrazol-3-yl)urea], the IC50 is under 100 nM.

In turn, `COCCN1C[C@@H](NC(=O)Nc2c(C)c(C)nn2-c2ccccc2)[C@H](c2ccc(F)cc2)C1` [Example 129, 1-(3,4-dimethyl-1-phenyl-1H-pyrazol-5-yl)-3-((3S,4R)-4-(4-fluorophenyl)-1-(2-methoxyethyl)pyrrolidin-3-yl)urea] registered an IC50 of under 100 nM.

`COCCOc1ccc(-c2cc(NC(=O)N[C@@H]3CN(CCOC)C[C@H]3c3ccc(F)c(F)c3)n(C)n2)cc1` [Example 130, 1-((3S,4R)-4-(3,4-difluorophenyl)-1-(2-methoxyethyl)pyrrolidin-3-yl)-3-(3-(4-(2-methoxyethoxy)phenyl)-1-methyl-1H-pyrazol-5-yl)urea] registered an IC50 of under 100 nM.

In turn, `COCCN1C[C@@H](NC(=O)Nc2c(OC)c(C)nn2-c2ccccc2)[C@H](c2ccc(F)c(F)c2)C1` [Example 131, 1-((3S,4R)-4-(3,4-difluorophenyl)-1-(2-methoxyethyl)pyrrolidin-3-yl)-3-(4-methoxy-3-methyl-1-phenyl-1H-pyrazol-5-yl)urea] came in with an IC50 of under 100 nM.

The compound `COCCN1C[C@@H](NC(=O)Nc2c(C)c(CO)nn2-c2ccccc2)[C@H](c2ccc(F)c(F)c2)C1` [Example 132, 1-((3S,4R)-4-(3,4-difluorophenyl)-1-(2-methoxyethyl)pyrrolidin-3-yl)-3-(3-(hydroxy-methyl)-4-methyl-1-phenyl-1H-pyrazol-5-yl)urea] gave an IC50 of under 100 nM.

`COCCN1C[C@@H](NC(=O)Nc2c(C)c(CCO)nn2-c2ccccc2)[C@H](c2ccc(F)c(F)c2)C1` [Example 133, 1-((3S,4R)-4-(3,4-difluorophenyl)-1-(2-methoxyethyl)pyrrolidin-3-yl)-3-(3-(2-hydroxy-ethyl)-4-methyl-1-phenyl-1H-pyrazol-5-yl)urea] showed an IC50 of under 100 nM.

As to `COCCc1nn(-c2ccccc2)c(NC(=O)N[C@@H]2CN(CCOC)C[C@H]2c2ccc(F)c(F)c2)c1C` [Example 134, 1-((3S,4R)-4-(3,4-difluorophenyl)-1-(2-methoxyethyl)pyrrolidin-3-yl)-3-(3-(2-methoxy-ethyl)-4-methyl-1-phenyl-1H-pyrazol-5-yl)urea], the IC50 was under 100 nM.

Compound `CCOc1nn(-c2ccccc2)c(NC(=O)N[C@@H]2CN(CCOC)C[C@H]2c2ccc(F)c(F)c2)c1C` [Example 135, 1-((3S,4R)-4-(3,4-difluorophenyl)-1-(2-methoxyethyl)pyrrolidin-3-yl)-3-(3-ethoxy-4-methyl-1-phenyl-1H-pyrazol-5-yl)urea] returned an IC50 of under 100 nM.

`COCCN1C[C@@H](NC(=O)Nc2cc(OCc3ccccc3)nn2C)[C@H](c2ccc(F)c(F)c2)C1` [Example 136, 1-(3-(benzyloxy)-1-methyl-1H-pyrazol-5-yl)-3-((3S,4R)-4-(3,4-difluorophenyl)-1-(2-methoxyethyl)pyrrolidin-3-yl)urea] registered an IC50 of 100 to 1000 nM.

For the compound `COCCOc1nn(-c2ccccc2)c(NC(=O)N[C@@H]2CN(CCOC)C[C@H]2c2ccc(F)c(F)c2)c1C` [Example 137, 1-((3S,4R)-4-(3,4-difluorophenyl)-1-(2-methoxyethyl)pyrrolidin-3-yl)-3-(3-(2-methoxy-ethoxy)-4-methyl-1-phenyl-1H-pyrazol-5-yl)urea], the IC50 is under 100 nM.

As to `CCOc1nn(-c2ccccc2)c(NC(=O)N[C@@H]2CN(CCOC)C[C@H]2c2cc(F)cc(F)c2)c1C` [Example 138, 1-((3S,4R)-4-(3,5-difluorophenyl)-1-(2-methoxyethyl)pyrrolidin-3-yl)-3-(3-ethoxy-4-methyl-1-phenyl-1H-pyrazol-5-yl)urea], the IC50 is under 100 nM.

`CCOc1nn(-c2ccccc2)c(NC(=O)N[C@@H]2CN(CCOC)C[C@H]2c2ccccc2)c1C` [Example 139] came in with an IC50 of under 100 nM.

For the compound `COCCN1C[C@@H](NC(=O)Nc2c(C)c(OC)nn2-c2ccccc2)[C@H](c2ccc(F)c(F)c2)C1` [Example 140, 1-((3S,4R)-4-(3,4-difluorophenyl)-1-(2-methoxyethyl)pyrrolidin-3-yl)-3-(3-methoxy-4-methyl-1-phenyl-1H-pyrazol-5-yl)urea], the IC50 is under 100 nM.

In turn, `COCCN1C[C@@H](NC(=O)Nc2c(C)c(OCC#N)nn2-c2ccccc2)[C@H](c2ccc(F)c(F)c2)C1` [Example 141, 1-(3-(cyanomethoxy)-4-methyl-1-phenyl-1H-pyrazol-5-yl)-3-((3S,4R)-4-(3,4-difluorophenyl)-1-(2-methoxyethyl)pyrrolidin-3-yl)urea] gave an IC50 of under 100 nM.

Compound `COCCN1C[C@@H](NC(=O)Nc2c(C)c(OCc3ccc(OC)cc3)nn2-c2ccccc2)[C@H](c2ccc(F)c(F)c2)C1` [Example 142, 1-((3S,4R)-4-(3,4-difluoro-phenyl)-1-(2-methoxyethyl)pyrrolidin-3-yl)-3-(3-(4-methoxybenzyloxy)-4-methyl-1-phenyl-1H-pyrazol-5-yl)urea] yielded an IC50 of under 100 nM.

`COCCN1C[C@@H](NC(=O)Nc2c(C)c(OC)nn2-c2ccccc2)[C@H](c2ccc(F)cc2)C1` [Example 143, 1-((3S,4R)-4-(4-fluorophenyl)-1-(2-methoxyethyl)pyrrolidin-3-yl)-3-(3-methoxy-4-methyl-1-phenyl-1H-pyrazol-5-yl)urea] returned an IC50 of under 100 nM.

Regarding `COCCN1C[C@@H](NC(=O)Nc2c(C)c(OCCF)nn2-c2ccccc2)[C@H](c2ccc(F)c(F)c2)C1` [Example 144, 1-((3S,4R)-4-(3,4-difluorophenyl)-1-(2-methoxyethyl)pyrrolidin-3-yl)-3-(3-(2-fluoro-ethoxy)-4-methyl-1-phenyl-1H-pyrazol-5-yl)urea], the half-inhibitory concentration (IC50) is under 100 nM.

As for `COCCN1C[C@@H](NC(=O)Nc2c(C)c(OCC(C)(C)O)nn2-c2ccccc2)[C@H](c2ccc(F)c(F)c2)C1` [Example 145, 1-((3S,4R)-4-(3,4-difluorophenyl)-1-(2-methoxyethyl)pyrrolidin-3-yl)-3-(3-(2-hydroxy-2-methylpropoxy)-4-methyl-1-phenyl-1H-pyrazol-5-yl)urea], the IC50 was under 100 nM.
